Assay results from PMC10016038, “Enhanced Endosomal Signaling and Desensitization of GLP-1R vs GIPR in Pancreatic Beta Cells” (Endocrinology, 2023).

Tests used:
[1] = system: calcium response in INS-1 832/3 cells; assay: Calcium assay, INS-1 832/3 cells; assay type: cell-based, rat; conditions: for Calcium response, net difference between both receptors: INS-1 832/3
Protocol: Imaging of INS-1 832/3 cells or whole-islet Ca^2+ dynamics was performed as follows: cells or Matrigel-encased islets from individual animals were loaded with the Ca^2+ responsive dye Cal-520 AM (AAT Bioquest), pre-incubated for 1 hour in KRBH G6, and imaged in MatTek glass bottom dishes every 6 second at 488 nm using a Nikon Eclipse Ti microscope with an ORCA-Flash 4.0 camera (Hamamatsu) and Metamorph software (Molecular Devices) while maintained at 37 °C on a heated stage. Raw fluorescence intensity traces from cell-occupied areas or islet ROIs were extracted using Fiji. Responses were plotted relative to the average fluorescence intensity during the 6 mM glucose baseline period, before agonist addition.
Figure 7. Functional analysis of GLP-1R vs GIPR signaling in beta cells. […] Data are mean ± SEM, compared by paired t tests; *P < .05; ns, nonsignificant.

GIPR-NanoLuc = assay: Rab5-Venus bystander NanoBRET (early endosome), GIPR; assay type: cell-based; conditions: n = 5
Description: (§1) GLP-1R-NanoLuc was generated in house by polymerase chain reaction (PCR) cloning of the NanoLuciferase sequence from pcDNA3.1-ccdB-NanoLuc (a gift from Prof. Mikko Taipale; Addgene plasmid # 87067) onto the C-terminus end of the SNAP-GLP-1R vector (CisBio), followed by site-directed mutagenesis of the GLP-1R stop codon. GIPR-NanoLuc was subsequently cloned in house by exchanging the GLP-1R for the GIPR in the GLP-1R-NanoLuc construct. KRAS- and Rab5-Venus plasmids were a gift from Prof. Kevin Pfleger, University of Western Australia. The INS-1 832/3 GLP-1R KO and GIPR KO cells were seeded in 12-well plates and co-transfected with 0.2 µg KRAS-Venus and 0.1 µg GLP-1R- or GIPR-NanoLuc, respectively, or 0.5 µg Rab5-Venus and 0.1 µg GLP-1R- or GIPR-NanoLuc, respectively.
(§2) All NanoBiT and NanoBRET readings were obtained in a Flexstation 3 plate reader. Briefly, 24 hours after transfection, cells were detached, resuspended in NanoGlo Live Cell Reagent (Promega) with furimazine (1:20 dilution) and seeded into white 96-well half-area plates. […] Readings were normalized to well baseline and then to average vehicle-induced signal to establish the agonist-induced effect. AUCs from response curves were calculated for each agonist concentration and fitted to four-parameter curves using Prism 9 (GraphPad).
(§3) Figure 2. Endosomal vs plasma membrane localization of GLP-1R compared with GIPR in beta cells. […]

SNAP-tagged human GIPR = assay: TR-FRET receptor clustering, SNAP-GIPR; assay type: cell-based; conditions: 100 nM, 37 °C, n = 4
Protocol: The time-resolved fluorescence resonance energy transfer (TR-FRET) assay was performed as previously described ([24]). INS-1 832/3 SNAP-GLP-1R or SNAP-GIPR cells were labeled in suspension with 40 nM SNAP-Lumi4-Tb and 1 mM SNAP-Surface 649 (New England Biolabs, Hitchin, UK) for 1 hour at room temperature in complete medium. […] TR-FRET was quantified as the ratio of fluorescent signal at 665 nm to that at 616 nm, after subtraction of background signal at each wavelength.
Figure 3. GLP-1R vs GIPR clustering propensities in beta cells. […] Diffusion coefficients for individual ROIs are indicated on each image, with corresponding intensity traces, as well as 2D and fitted 3D autocorrelation maps for each ROI, are also depicted. (B) Average RICS diffusion coefficients for each receptor and treatment for each cell analyzed from n = 4 experiments. (C) GLP-1R clustering kinetics measured by TR-FRET in INS-1 832/3 SNAP-GLP-1R cells treated with 100 nM agonist as indicated, with vehicle-corrected AUCs included; n = 4. (D) GIPR clustering kinetics measured by TR-FRET in INS-1 832/3 SNAP-GIPR cells treated with 100 nM agonist as indicated, with vehicle-corrected AUCs included; n = 4. Data are mean ± SEM, compared by one-way ANOVA with Sidak's test; ****P < .0001; ns: non-significant. […] Best readings: GLP-1R Veh i 2.03, ii 1.56, iii 1.44 μm^2/s; GIPR Veh i 0.80, ii 0.34, iii 0.44 μm^2/s. […]

GIPR-SmBiT = assay: Mini-G protein/β-arrestin 2 recruitment NanoBiT, GIPR; assay type: cell-based; conditions: 100 nM GIP, n = 5
Description: Here the SmBiT was cloned in frame at the C-terminus of the GLP-1R and the GIPR by substitution of the Tango sequence on FLAG-tagged GLP-1R-Tango or GIPR-Tango (a gift from Prof. Bryan Roth, University of North Carolina, USA; Addgene plasmids #66291 and #66294), respectively. Mini-Gs, mini-Gq, and mini-Gi plasmids, tagged at the N-terminus with LgBiT, were a gift from Prof. Nevin Lambert, Medical College of Georgia, USA. For β-arrestin 2 recruitment assays, β-arrestin 2 fused at the N-terminus to LgBiT (LgBiT-β-arrestin 2; Promega, plasmid no. CS1603B118) was chosen as it has previously been used successfully with other class B GPCRs. […]
All NanoBiT and NanoBRET readings were obtained in a Flexstation 3 plate reader. […] Readings were normalized to well baseline and then to average vehicle-induced signal to establish the agonist-induced effect. AUCs from response curves were calculated for each agonist concentration and fitted to four-parameter curves using Prism 9 (GraphPad).
Figure 5. […] (A) Kinetics of Gαs, Gαq, Gαi, and β-arrestin 2 recruitment to the GLP-1R assessed by NanoBiT complementation assay in INS-1 832/3 GLP-1R KO cells transiently expressing GLP-1R-SmBiT and the corresponding mini-G protein subtype or β-arrestin 2. […]

GLP-1R-NanoLuc = assay: Rab5-Venus bystander NanoBRET (early endosome), GLP-1R; assay type: cell-based; conditions: n = 5
Description: as §1, §2, §3

| Substance | Calcium response, net difference between both receptors ([1]; Cal-520 AM, 100 nM, n = 4) | Calcium response, GIPR compared with GLP-1R, 0-1 minute ([1]; Cal-520 AM, 100 nM, first minute, n = 4) | Calcium response, GIPR compared with GLP-1R, 1-5 minutes ([1]; Cal-520 AM, 100 nM, following 4 minutes, n = 4) | Calcium response tendency, GIP vs GLP-1, INS-1 832/3 ([1]; summary in discussion) | Agonist-mediated redistribution of GIPR to Rab5-positive early endosomes (GIPR-NanoLuc) | GIPR clustering (SNAP-tagged human GIPR) | GIPR responses for all readouts (Gαs, Gαq, Gαi, β-arrestin 2) compared with GLP-1R (GIPR-SmBiT; 30 minutes) | Gαs recruitment to the GIPR (GIPR-SmBiT) | Agonist-mediated redistribution of GLP-1R to Rab5-positive early endosomes (GLP-1R-NanoLuc) |
| --- | --- | --- | --- | --- | --- | --- | --- | --- | --- |
| GIP(1-42) | zero net difference | initial trend for a decreased GIPR compared with GLP-1R response | this tendency was reversed | tendency toward increased | virtually absent | could not be detected | markedly reduced for all readouts | almost as low as those obtained for Gαi | – |
| GLP-1(7-36)NH2 | zero net difference | – | – | – | – | not detectable | – | – | clearly detectable |
